{"source": "patent US11453640B2", "about": "“Small molecules for disrupting the super elongation complex and inhibiting transcription elongation for cancer therapy” (NORTHWESTERN UNIVERSITY, priority 2018, dated 2022)", "key": {"ELL2": {"system": "ELL2", "test": "Western blotting of ELL2 protein levels in 293T cells", "format": "cell-based, human", "conditions": "20 μM, 6 hr", "text": "FIG. 10, related to FIG. 3. Disruption of SEC phenocopies slow Pol II mutants and reduces Pol II processivity. (A) Identification of the 1,057 genes with typical Pol II termination signals around the TES. Pol II signals from WT Pol II mutant expressing cells were K-means clustered into 5 groups with a window of 15 kb around the TES. The expressing genes from clusters with a typical Pol II termination signals were selected and plotted. (B) SEC inhibitor treatments of the WT Pol II mutant expressing cells lead to a Pol II phenotype similar to slower Pol II mutant expressing cells as viewed at the 3′-end of genes. (C-D) Time-dependent and dose-dependent shift of Pol II signals around the TES sites by KL-2 treatment (N=1,057). (E) Genome browser tracks of Serine 2 phosphorylated (Ser2P) Pol II at the SRSF1 gene in HEK293T cells treated with vehicle or SEC inhibitors. SEC inhibitor treatments result in increased Pol II occupancy at the promoter-proximal region and increased occupancy of Ser2P Pol II in the gene body. […] (H) SEC inhibition results in decreased protein levels of the SEC subunit ELL2. 293T cells were treated with 20 μM of the indicated inhibitors for 6 hr before harvesting cells for western blotting. (I-K) Depletion of ELL2 in HEK293T cells (I) results in apparent early termination of Pol II with reduced Pol II occupancy downstream of the PIM3 (J) and ACTB (K) annotated TES. […]"}, "MDA231-LM2 cells [1]": {"system": "MDA231-LM2 cells", "test": "Colony formation of MDA231-LM2 cells in vitro", "format": "cell-based", "conditions": "5 days", "experimental": "(§1) FIG. 14, related to FIG. 7. SEC disruptors delay tumor progression and improve survival of MDA231-LM2 tumor mice. (A) KL-1 and KL-2 inhibit the colony formation of MDA231-LM2 cells in vitro. 5×10^3 MDA231-LM2 cells were seeded in 6-well plates and treated with KL-1 or KL-2 at the indicated doses for 5 days. Crystal violet staining was performed to stain the colonies. (B) KL-1 and KL-2 induce apoptosis in MDA231-LM2 cells. Bar graph depiction of Annexin V positive MDA231-LM2 cells after 24 hr of KL-1 and KL-2 treatments at the indicated concentrations. Data are represented as Mean+/−SD. […] Each individual line indicates the weights of each mouse during toxicity test."}, "MDA231-LM2 cells [2]": {"system": "MDA231-LM2 cells", "test": "Annexin V apoptosis in MDA231-LM2 cells", "format": "cell-based", "conditions": "24 hr", "experimental": "as §1"}, "[3]": {"test": "Toxicity test in mice (body weight, sickness)", "format": "in vivo", "conditions": "5 doses of 50 mg/kg, monitored 35 days", "experimental": "as §1"}, "MDA231-LM2 tumor": {"system": "MDA231-LM2 tumor", "test": "MDA231-LM2 tumor model in athymic nude mice", "format": "in vivo", "conditions": "50 mg/kg once daily, 15 intraperitoneal injections", "experimental": "FIG. 7. SEC disruptors delay tumor progression and improve survival of MDA231-LM2 tumor mice. (A) Schematic of the development of MDA231-LM2 tumors in athymic nude mice (Wang et al., 2017). 4×10^6 MDA231-LM2 cells were inoculated into the fat pads of nude mice. 17 days after injection, when the tumor reached 100 mm^3, mice were divided randomly into three groups. Drug treatments were performed with once daily with 50 mg/kg KL-1, 10 mg/kg KL-2 or PBS (vehicle) for a total of 15 intraperitoneal injections. (B-C) KL-1 and KL-2 delay the tumor growth in the MDA231-LM2 tumor mouse model. The average tumor sizes of the vehicle (n=6), KL-1 (n=7), and KL-2 (n=5) treated groups were plotted from day 5 to day 36 after inoculation (B). Representative tumors sizes are shown (C). […] A 2-way unpaired student's t-test was used for statistical analysis. (E) Kaplan-Meier survival curves of vehicle, KL-1, and KL-2 treated nude mice transplanted with 4×10^6MDA231-LM2 cells. 17 days after inoculation, vehicle (n=6), KL-1 (n=7), and KL-2 (n=5) were administered daily for 15 intraperitoneal injections. Mice were euthanized when the tumor size reached 1000 mm^3. Thep values were calculated using the log-rank test.\nMDA231-LM2 Tumor Model. […] The tumor sizes were measured twice a week and the mice were euthanized when the tumor size reached 1000 mm^3."}}, "data": [{"smiles": "COc1cccc(C(=O)CC(=O)C(=O)Nc2cc(Cl)ccc2C)c1", "note": "[KL-1, N-(5-chloro-2-methylphenyl)-4-oxo-4-(3-methoxyphenyl)-2-oxobutanamide]", "values": [{"measurement": "ELL2 protein levels", "setting": "ELL2", "value": "led to reduced ELL2 protein levels"}, {"measurement": "colony formation capability", "setting": "MDA231-LM2 cells [1]", "value": "could inhibit the colony formation capability"}, {"measurement": "apoptosis (Annexin V staining)", "setting": "MDA231-LM2 cells [2]", "value": "increase apoptosis"}, {"measurement": "weight loss in mice", "setting": "[3]; intraperitoneal", "value": "does not result in significant weight loss"}, {"measurement": "sign of sickness in mice", "setting": "[3]", "value": "no obvious sign of sickness was observed"}, {"measurement": "survival of the recipient mice", "setting": "MDA231-LM2 tumor", "value": "significantly extended survival"}, {"measurement": "tumor progression (tumor sizes)", "setting": "MDA231-LM2 tumor", "value": "delayed tumor progression"}]}]}
